Experiments:
[1] = 96.64 kPa, Liquid, mechanical oscillator
[2] = refractive index (Na D-line) (dimensionless); details: 94.64 kPa, Liquid, Standard Abbe refractometry
[3] = refractive index (other wavelength) (dimensionless); details: 94.64 kPa, Liquid, Standard Abbe refractometry
[4] = xn = mol fraction of the nth substance listed; details: 96.64 kPa, Liquid, mechanical oscillator, x2 = 0
[5] = refractive index (Na D-line) (dimensionless); xn = mol fraction of the nth substance listed; details: 94.64 kPa, Liquid, Standard Abbe refractometry, x2 = 0
[6] = refractive index (other wavelength) (dimensionless); xn = mol fraction of the nth substance listed; details: 94.64 kPa, Liquid, Standard Abbe refractometry, x2 = 0

Cc1ccccc1 [toluene]
Details	mass density, 293.15 K [kg/m3]	mass density, 298.15 K [kg/m3]	mass density, 303.15 K [kg/m3]	refractive index, 293.15 K	refractive index, 298.15 K	refractive index, 303.15 K
[1]	866.75	861.74	856.81	–	–	–
[2]	–	–	–	1.49687	1.49406	1.49124

refractive index, [3]
Details	Wavelength=404.7 nm	Wavelength=435.8 nm	Wavelength=486.1 nm	Wavelength=546.1 nm	Wavelength=587.6 nm	Wavelength=632.8 nm	Wavelength=644 nm	Wavelength=706.5 nm
293.15 K	1.52597	1.51768	1.50826	1.50069	1.497	1.49379	1.49306	1.48975
298.15 K	1.52295	1.51473	1.50537	1.49785	1.49419	1.49101	1.49028	1.48697
303.15 K	1.51996	1.51177	1.50248	1.495	1.49137	1.4882	1.48748	1.48419

CC(=O)O [acetic acid]
Details	mass density, 293.15 K [kg/m3]	mass density, 298.15 K [kg/m3]	mass density, 303.15 K [kg/m3]	refractive index, 293.15 K	refractive index, 298.15 K	refractive index, 303.15 K
[1]	1049.63	1043.57	1037.64	–	–	–
[2]	–	–	–	1.37224	1.37012	1.36809

refractive index, [3]
Details	Wavelength=404.7 nm	Wavelength=435.8 nm	Wavelength=486.1 nm	Wavelength=546.1 nm	Wavelength=587.6 nm	Wavelength=632.8 nm	Wavelength=644 nm	Wavelength=706.5 nm
293.15 K	1.38345	1.38034	1.37681	1.37386	1.3723	1.37087	1.37055	1.36896
298.15 K	1.38126	1.37816	1.37466	1.37174	1.37018	1.36876	1.36844	1.36686
303.15 K	1.37917	1.37611	1.37261	1.36968	1.36815	1.36675	1.36643	1.36485

O [water]
Details	mass density, 298.15 K [kg/m3]	mass density, 303.15 K [kg/m3]	refractive index, 293.15 K	refractive index, 298.15 K	refractive index, 303.15 K
[1]	996.61	994.87	–	–	–
[2]	–	–	1.33308	1.33257	1.33198

refractive index, [3]
Details	Wavelength=404.7 nm	Wavelength=435.8 nm	Wavelength=486.1 nm	Wavelength=546.1 nm	Wavelength=587.6 nm	Wavelength=632.8 nm	Wavelength=644 nm	Wavelength=706.5 nm
293.15 K	1.34276	1.34021	1.33716	1.33454	1.33313	1.33183	1.33153	1.33003
298.15 K	1.34222	1.33968	1.33665	1.33402	1.33262	1.33132	1.33102	1.32954
303.15 K	1.34161	1.33909	1.33604	1.33344	1.33203	1.33073	1.33044	1.32897

Cc1ccccc1 [toluene] + CC(=O)O
Details	mass density, 293.15 K [kg/m3]	mass density, 298.15 K [kg/m3]	mass density, 303.15 K [kg/m3]	refractive index, 293.15 K	refractive index, 298.15 K	refractive index, 303.15 K
[4]	866.75	861.74	856.81	–	–	–
[5]	–	–	–	1.49687	1.49406	1.49124

refractive index, [6]
Details	Wavelength=404.7 nm	Wavelength=435.8 nm	Wavelength=486.1 nm	Wavelength=546.1 nm	Wavelength=587.6 nm	Wavelength=632.8 nm	Wavelength=644 nm	Wavelength=706.5 nm
293.15 K	1.52597	1.51768	1.50826	1.50069	1.497	1.49379	1.49306	1.48975
298.15 K	1.52295	1.51473	1.50537	1.49785	1.49419	1.49101	1.49028	1.48697
303.15 K	1.51996	1.51177	1.50248	1.495	1.49137	1.4882	1.48748	1.48419

O [water] + CC(=O)O
Details	mass density, 298.15 K [kg/m3]	mass density, 303.15 K [kg/m3]	refractive index, 293.15 K	refractive index, 298.15 K	refractive index, 303.15 K
[4]	996.61	994.87	–	–	–
[5]	–	–	1.33308	1.33257	1.33198

refractive index, [6]
Details	Wavelength=404.7 nm	Wavelength=435.8 nm	Wavelength=486.1 nm	Wavelength=546.1 nm	Wavelength=587.6 nm	Wavelength=632.8 nm	Wavelength=644 nm	Wavelength=706.5 nm
293.15 K	1.34276	1.34021	1.33716	1.33454	1.33313	1.33183	1.33153	1.33003
298.15 K	1.34222	1.33968	1.33665	1.33402	1.33262	1.33132	1.33102	1.32954
303.15 K	1.34161	1.33909	1.33604	1.33344	1.33203	1.33073	1.33044	1.32897
